Source: ChEMBL document CHEMBL4308864, “Targeting tyrosine kinase: Development of acridone - pyrrole - oxindole hybrids against human breast cancer” (2019)

Legend:
Type in all cases: functional
[1] = system: Malme-3M; assay: Growth inhibition of human MALME-3M cells assessed as cell growth at 10^-5 M incubated for 48 hrs by sulforhodamine B assay relative to control; details: read-out: Activity
[2] = system: SK-MEL-2; assay: Growth inhibition of human SK-MEL-2 cells assessed as cell growth at 10^-5 M incubated for 48 hrs by sulforhodamine B assay relative to control; details: SK-MEL-2, 48 h, read-out: Activity
[3] = system: A549; assay: Growth inhibition of human A549/ATCC cells assessed as cell growth at 10^-5 M incubated for 48 hrs by sulforhodamine B assay relative to control; details: A549, 48 h, read-out: Activity
[4] = system: NCI-H460; assay: Growth inhibition of human NCI-H460 cells assessed as cell growth at 10^-5 M incubated for 48 hrs by sulforhodamine B assay relative to control; details: NCI-H460, 48 h, read-out: Activity
[5] = system: A498; assay: Growth inhibition of human A498 cells assessed as cell growth at 10^-5 M incubated for 48 hrs by sulforhodamine B assay relative to control; details: A498, 48 h, read-out: Activity
[6] = system: IGROV-1; assay: Growth inhibition of human IGROV1 cells assessed as cell growth at 10^-5 M incubated for 48 hrs by sulforhodamine B assay relative to control; details: IGROV-1, 48 h, read-out: Activity
[7] = system: HL-60(TB); assay: Growth inhibition of human HL-60(TB) cells assessed as cell growth at 10^-5 M incubated for 48 hrs by sulforhodamine B assay relative to control; details: HL-60, 48 h, read-out: Activity
[8] = system: SK-MEL-28; assay: Growth inhibition of human SK-MEL-28 cells assessed as cell growth at 10^-5 M incubated for 48 hrs by sulforhodamine B assay relative to control; details: SK-MEL-28, 48 h, read-out: Activity
[9] = system: DU-145; assay: Growth inhibition of human DU145 cells assessed as cell growth at 10^-5 M incubated for 48 hrs by sulforhodamine B assay relative to control; details: DU-145, 48 h, read-out: Activity
[10] = system: UACC-62; assay: Growth inhibition of human UACC62 cells assessed as cell growth at 10^-5 M incubated for 48 hrs by sulforhodamine B assay relative to control; details: UACC-62, 48 h, read-out: Activity
[11] = system: HCT-116; assay: Growth inhibition of human HCT116 cells assessed as cell growth at 10^-5 M incubated for 48 hrs by sulforhodamine B assay relative to control; details: HCT-116, 48 h, read-out: Activity
[12] = system: SNB-75; assay: Growth inhibition of human SNB75 cells assessed as cell growth at 10^-5 M incubated for 48 hrs by sulforhodamine B assay relative to control; details: SNB-75, 48 h, read-out: Activity
[13] = system: LOX IMVI; assay: Growth inhibition of human LOXIMVI cells assessed as cell growth at 10^-5 M incubated for 48 hrs by sulforhodamine B assay relative to control; details: read-out: Activity
[14] = system: Hs-578T; assay: Growth inhibition of human Hs578T cells assessed as cell growth at 10^-5 M incubated for 48 hrs by sulforhodamine B assay relative to control; details: read-out: Activity
[15] = system: U-251; assay: Growth inhibition of human U251 cells assessed as cell growth at 10^-5 M incubated for 48 hrs by sulforhodamine B assay relative to control; details: U-251, 48 h, read-out: Activity
[16] = system: PC-3; assay: Growth inhibition of human PC3 cells assessed as cell growth at 10^-5 M incubated for 48 hrs by sulforhodamine B assay relative to control; details: PC-3, 48 h, read-out: Activity
[17] = system: ACHN; assay: Growth inhibition of human ACHN cells assessed as cell growth at 10^-5 M incubated for 48 hrs by sulforhodamine B assay relative to control; details: read-out: Activity
[18] = system: SN12C; assay: Growth inhibition of human SN12C cells assessed as cell growth at 10^-5 M incubated for 48 hrs by sulforhodamine B assay relative to control; details: read-out: Activity
[19] = system: M14; assay: Growth inhibition of human M14 cells assessed as cell growth at 10^-5 M incubated for 48 hrs by sulforhodamine B assay relative to control; details: M14, 48 h, read-out: Activity
[20] = system: MOLT-4; assay: Growth inhibition of human MOLT4 cells assessed as cell growth at 10^-5 M incubated for 48 hrs by sulforhodamine B assay relative to control; details: MOLT-4, 48 h, read-out: Activity
[21] = system: OVCAR-4; assay: Growth inhibition of human OVCAR4 cells assessed as cell growth at 10^-5 M incubated for 48 hrs by sulforhodamine B assay relative to control; details: OVCAR-4, 48 h, read-out: Activity
[22] = system: HCT-15; assay: Growth inhibition of human HCT15 cells assessed as cell growth at 10^-5 M incubated for 48 hrs by sulforhodamine B assay relative to control; details: HCT-15, 48 h, read-out: Activity
[23] = system: HCC 2998; assay: Growth inhibition of human HCC2998 cells assessed as cell growth at 10^-5 M incubated for 48 hrs by sulforhodamine B assay relative to control; details: HCC 2998, 48 h, read-out: Activity
[24] = system: HT-29; assay: Growth inhibition of human HT-29 cells assessed as cell growth at 10^-5 M incubated for 48 hrs by sulforhodamine B assay relative to control; details: HT-29, 48 h, read-out: Activity
[25] = system: MDA-MB-468; assay: Growth inhibition of human MDA-MB-468 cells at 10^-5 M incubated for 48 hrs by sulforhodamine B assay relative to control; details: MDA-MB-468, 48 h, read-out: GI
[26] = system: OVCAR-5; assay: Growth inhibition of human OVCAR5 cells assessed as cell growth at 10^-5 M incubated for 48 hrs by sulforhodamine B assay relative to control; details: OVCAR-5, 48 h, read-out: Activity
[27] = system: TK-10; assay: Growth inhibition of human TK10 cells assessed as cell growth at 10^-5 M incubated for 48 hrs by sulforhodamine B assay relative to control; details: TK-10, 48 h, read-out: Activity
[28] = system: CCRF-CEM; assay: Growth inhibition of human CCRF-CEM cells assessed as cell growth at 10^-5 M incubated for 48 hrs by sulforhodamine B assay relative to control; details: read-out: Activity
[29] = system: NCI-H522; assay: Growth inhibition of human NCI-H522 cells assessed as cell growth at 10^-5 M incubated for 48 hrs by sulforhodamine B assay relative to control; details: NCI-H522, 48 h, read-out: Activity
[30] = system: SF-268; assay: Growth inhibition of human SF268 cells assessed as cell growth at 10^-5 M incubated for 48 hrs by sulforhodamine B assay relative to control; details: SF-268, 48 h, read-out: Activity
[31] = system: SK-OV-3; assay: Growth inhibition of human SKOV3 cells assessed as cell growth at 10^-5 M incubated for 48 hrs by sulforhodamine B assay relative to control; details: SK-OV-3, 48 h, read-out: Activity
[32] = system: 786-0; assay: Growth inhibition of human 786-0 cells assessed as cell growth at 10^-5 M incubated for 48 hrs by sulforhodamine B assay relative to control; details: 786-0, 48 h, read-out: Activity

| SMILES | growth at 10 µM [1] | growth at 10 µM [2] | growth at 10 µM [3] | growth at 10 µM [4] | growth at 10 µM [5] | growth at 10 µM [6] | growth at 10 µM [7] | growth at 10 µM [8] | growth at 10 µM [9] | growth at 10 µM [10] | growth at 10 µM [11] | growth at 10 µM [12] | growth at 10 µM [13] | growth at 10 µM [14] | growth at 10 µM [15] | growth at 10 µM [16] | growth at 10 µM [17] | growth at 10 µM [18] | growth at 10 µM [19] | growth at 10 µM [20] | further results |
| --- | --- | --- | --- | --- | --- | --- | --- | --- | --- | --- | --- | --- | --- | --- | --- | --- | --- | --- | --- | --- | --- |
| O=C1NC(=O)C(=Cc2cccn2CCCCn2c3ccccc3c(=O)c3ccccc32)C(=O)N1 | 95.6% | 92.9% | 94.6% | 90.2% | 88.1% | 72.1% | 60.1% | 95.8% | 92.2% | 66.1% | 76.7% | 92.6% | 82.6% | 85.1% | 76% | 86.3% | 92.8% | 86.6% | 82.5% | 70.4% | growth at 10 µM [21]: 87.2%; growth at 10 µM [22]: 81.4%; growth at 10 µM [23]: 100%; growth at 10 µM [24]: 90.2%; inhibition of growth at 10 µM [25]: 40%; growth at 10 µM [26]: 91.8%; growth at 10 µM [27]: 92.4%; growth at 10 µM [28]: 64.1%; growth at 10 µM [29]: 70.5%; growth at 10 µM [30]: 85.7%; growth at 10 µM [31]: 100%; growth at 10 µM [32]: 86.6% |
| O=C1NC(=O)C(=Cc2cccn2CCCCCCn2c3ccccc3c(=O)c3ccccc32)C(=O)N1 | 112% | 107% | 95.6% | 101% | 93.1% | 91.5% | 91.3% | 111% | 103% | 82.1% | 71.2% | 107% | 89.7% | 106% | 90.5% | 87.7% | 103% | 100% | 94.4% | 79.6% | growth at 10 µM [21]: 95.4%; growth at 10 µM [22]: 90.3%; growth at 10 µM [23]: 101%; growth at 10 µM [24]: 105%; inhibition of growth at 10 µM [25]: 5%; growth at 10 µM [26]: 98.3%; growth at 10 µM [27]: 126%; growth at 10 µM [28]: 93.8%; growth at 10 µM [29]: 92.7%; growth at 10 µM [30]: 97%; growth at 10 µM [31]: 99.8%; growth at 10 µM [32]: 97.9% |
| O=C1/C(=C\c2cccn2CCCCCCn2c3ccccc3c(=O)c3ccccc32)c2ccccc2N1c1c(Cl)cccc1Cl | 102% | 98.8% | 96% | 109% | 110% | 90.6% | 103% | 108% | 113% | 85.5% | 103% | 95.2% | 98.5% | 103% | 97.6% | 73.9% | 97.7% | 103% | 98% | 91.2% | growth at 10 µM [21]: 58.3%; growth at 10 µM [22]: 67.1%; growth at 10 µM [23]: 78.8%; growth at 10 µM [24]: 106%; inhibition of growth at 10 µM [25]: 56%; growth at 10 µM [26]: 93.5%; growth at 10 µM [27]: 91%; growth at 10 µM [28]: 108%; growth at 10 µM [29]: 91%; growth at 10 µM [30]: 94.7%; growth at 10 µM [31]: 97.4%; growth at 10 µM [32]: 103% |
| O=C1/C(=C\c2cccn2CCCCCn2c3ccccc3c(=O)c3ccccc32)c2ccccc2N1c1c(Cl)cccc1Cl | 108% | 101% | 85.9% | 99.7% | 106% | 98.7% | 96.8% | 113% | 111% | 82.6% | 85.9% | 87.3% | 96.6% | 101% | 93% | 73.2% | 100% | 100% | 97.2% | 87.6% | growth at 10 µM [21]: 62.3%; growth at 10 µM [22]: 59.8%; growth at 10 µM [23]: 66.3%; growth at 10 µM [24]: 96.2%; inhibition of growth at 10 µM [25]: 39%; growth at 10 µM [26]: 94.5%; growth at 10 µM [27]: 99.8%; growth at 10 µM [28]: 100%; growth at 10 µM [29]: 84.9%; growth at 10 µM [30]: 95.7%; growth at 10 µM [31]: 95.6%; growth at 10 µM [32]: 104% |
